Laboratory results from patent publication US20260263624A1, “COMBINATION OF ANTIBODY-DRUG CONJUGATE AND CANCER THERAPY, AND USE THEREOF” (GENEQUANTUM HEALTHCARE (SUZHOU) CO., LTD., priority 2023, published 2026).

Assays:
[1] = system: HCC1954 cells (breast cancer HER2-high CDX model); assay: In vivo efficacy of GQ01 with chemotherapies in human breast cancer CDX model, HCC1954 (Example 6); design: species or system BALB/c nude mice; conditions: for Tumor volume (mm^3), Mean ± SEM: end day (day 32)
Protocol: I. HCC1954 cells in exponential growth stage were collected and counted for tumor inoculation. 0.2 mL of matrix gel buffer (PBS: Matrigel=1:1) was used to subcutaneously inject 1×10^6 cells into the right flank of SPF female BALB/c nude mice aged 6-8 weeks.
(§1) II. 9 days after inoculation, the tumor diameter was measured with a caliper and the tumor volume was calculated according to the formula V=0.5 a×b2 (wherein a is the long diameter of the tumor and b is the short diameter of the tumor). […] Each group included 6 mice. The day of first administration was defined as day 0. […] The tumor volume of mice in each group was measured twice a week.

[2] = system: BT-474 cells (breast cancer HER2-high CDX model); assay: In vivo efficacy of GQ01 with chemotherapies in human breast cancer CDX model, BT-474 (Example 5); design: species or system BALB/c nude mice; conditions: GQ01 5 mg/kg single dose; for TGI (%): day 25; for Tumor volume (mm^3), Mean ± SEM: end day (day 25)
Protocol: I. Breast cancer tumor cells were passaged in vivo from BT-474 cells (ATCC, Lot #HTB-20). The cells in exponential growth stage were collected and counted for tumor inoculation. 0.2 mL of matrix gel buffer (PBS: Matrigel=1:1) was used to subcutaneously inject 2×10^6 cells into the right flank of SPF female BALB/c nude mice aged 6-8 weeks. Four days before cell inoculation, BALB/c nude mice had been subcutaneously inoculated with estrogen tablet.
as §1, with “10” for “9”

[3] = capecitabine 300 mg/kg QD 2 weeks, combination 5 + 300 mg/kg
[4] = capecitabine 300 mg/kg QD 2 weeks, combination 5 + 300 mg/kg, listed as capecitabine
[5] = paclitaxel 10 mg/kg BIW 4 weeks, combination 5 + 10 mg/kg
[6] = paclitaxel 10 mg/kg BIW 4 weeks, combination 5 + 10 mg/kg, listed as paclitaxel

Compound | Tumor volume (mm^3), Mean ± SEM ([1]; table prints GQ01 5 mg/kg and 5 + 300 mg/kg, text GQ01 2 mg/kg single dose, capecitabine 300 mg/kg QD 2 weeks) | Tumor volume (mm^3), Mean ± SEM ([1]; table prints GQ01 5 mg/kg and 5 + 300 mg/kg, text GQ01 2 mg/kg single dose, capecitabine 300 mg/kg QD 2 weeks, listed as capecitabine) [mm^3] | TGI (%) ([1]; text: day 32, footnote: day 25, table prints GQ01 5 mg/kg and 5 + 300 mg/kg, text GQ01 2 mg/kg single dose, capecitabine 300 mg/kg QD 2 weeks) | TGI (%) ([1]; text: day 32, footnote: day 25, table prints GQ01 5 mg/kg and 5 + 300 mg/kg, text GQ01 2 mg/kg single dose, capecitabine 300 mg/kg QD 2 weeks, listed as capecitabine) | TGI (%) [2, 3] [%] | TGI (%) [2, 4] [%] | Tumor volume (mm^3), Mean ± SEM [2, 3] [mm^3] | Tumor volume (mm^3), Mean ± SEM [2, 4] [mm^3] | TGI (%) ([1]; day 32, GQ01 2 mg/kg single dose, paclitaxel 10 mg/kg BIW 4 doses, combination 2 + 10 mg/kg, trastuzumab 5 + pertuzumab 5 (single dose) + paclitaxel 10 mg/kg) | TGI (%) ([1]; day 32, GQ01 2 mg/kg single dose, paclitaxel 10 mg/kg BIW 4 doses, combination 2 + 10 mg/kg, trastuzumab 5 + pertuzumab 5 (single dose) + paclitaxel 10 mg/kg, listed as paclitaxel) | Tumor volume (mm^3), Mean ± SEM ([1]; GQ01 2 mg/kg single dose, paclitaxel 10 mg/kg BIW 4 doses, combination 2 + 10 mg/kg, trastuzumab 5 + pertuzumab 5 (single dose) + paclitaxel 10 mg/kg) | Tumor volume (mm^3), Mean ± SEM ([1]; GQ01 2 mg/kg single dose, paclitaxel 10 mg/kg BIW 4 doses, combination 2 + 10 mg/kg, trastuzumab 5 + pertuzumab 5 (single dose) + paclitaxel 10 mg/kg, listed as paclitaxel) [mm^3] | TGI (%) [2, 5] [%] | TGI (%) [2, 6] [%] | Tumor volume (mm^3), Mean ± SEM [2, 5] [mm^3] | Tumor volume (mm^3), Mean ± SEM [2, 6] [mm^3]
CCCCCOC(=O)Nc1nc(=O)n([C@@H]2O[C@H](C)[C@@H](O)[C@H]2O)cc1F [Capecitabine, capecitabine] | 1,183 ± 222 mm^3 | 1183 | 29.05 | 29.05 | 21.01 | 21.01 | 858 ± 280 | 858 |  |  |  |  |  |  |  | 
CC(=O)O[C@H]1C(=O)[C@@]2(C)[C@H]([C@H](OC(=O)c3ccccc3)[C@]3(O)C[C@H](OC(=O)[C@H](O)[C@@H](NC(=O)c4ccccc4)c4ccccc4)C(C)=C1C3(C)C)[C@]1(OC(C)=O)CO[C@@H]1C[C@@H]2O [Paclitaxel, paclitaxel] |  |  |  |  |  |  |  |  | 26.60 | 26.60 | 1,219 ± 124 mm^3 | 1219 | 58.54 | 58.54 | 520 ± 87 | 520
